Test results from PubChem BioAssay (NCI).
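Values below derive from 48-hour exposures of cells grown in 96-well plates, with endpoints linearly interpolated between the two concentrations bracketing the appropriate inhibition level. At the GI50, growth is halved. TGI: total growth inhibition.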

What was measured:
Assay in all cases: growth of human tumour cells (NCI), 48 h
ACHN renal = system: ACHN renal
LOX IMVI melanoma = system: LOX IMVI melanoma
RXF 393 renal = system: RXF 393 renal
XF 498 CNS = system: XF 498 CNS
SNB-75 CNS = system: SNB-75 CNS
DLD-1 colon = system: DLD-1 colon
SF-539 CNS = system: SF-539 CNS
UACC-62 melanoma = system: UACC-62 melanoma
RPMI-8226 leukemia = system: RPMI-8226 leukemia
HCC-2998 colon = system: HCC-2998 colon

Row | SMILES | TGI (ACHN renal) [µM] | TGI (LOX IMVI melanoma) [µM] | TGI (RXF 393 renal) [µM] | TGI (XF 498 CNS) [µM] | TGI (SNB-75 CNS) [µM] | TGI (DLD-1 colon) [µM] | TGI (SF-539 CNS) [µM] | TGI (UACC-62 melanoma) [µM] | TGI (RPMI-8226 leukemia) [µM] | TGI (HCC-2998 colon) [µM] | GI50 (ACHN renal) [µM] | GI50 (LOX IMVI melanoma) [µM] | GI50 (RXF 393 renal) [µM] | GI50 (XF 498 CNS) [µM] | GI50 (SNB-75 CNS) [µM] | GI50 (DLD-1 colon) [µM] | GI50 (SF-539 CNS) [µM] | GI50 (UACC-62 melanoma) [µM] | GI50 (RPMI-8226 leukemia) [µM] | GI50 (HCC-2998 colon) [µM]
1 | C[Si](C)(C)C(CCCCSc1ccccc1)(Sc1ccccc1)Sc1ccccc1 | > 100 | > 100 | > 100 | > 100 | > 100 | > 100 | > 100 | > 100 | > 100 | > 100 | – | – | – | – | – | – | – | – | – | –
2 | O=C(C#Cc1ccccc1)N1c2ccccc2CC1c1c[nH]c2ccccc12 (stereo not drawn) | 66 | 19.7 | 19.5 | – | 37.6 | 76.7 | 31.1 | 22.8 | 43.2 | 31.3 | – | – | – | – | – | – | – | – | – | –
3 | COc1ccc(OC(C(=O)O)C(C)C)c2c1CCCC2=O (stereo not drawn) | > 100 | > 100 | – | > 100 | – | > 100 | > 100 | > 100 | > 100 | > 100 | – | – | – | – | – | – | – | – | – | –
4 | COc1ccc(-c2cc(C(=O)Nc3cc(C(F)(F)F)cc(C(F)(F)F)c3)c3ccccc3n2)cc1 | 76.2 | 29.1 | 21 | 22.5 | 29.6 | 43.6 | 28.4 | > 100 | > 100 | 29.7 | – | – | – | – | – | – | – | – | – | –
5 | [O-]c1ccccc1C=Nc1ccc2c(c1)CCC2.[O-]c1ccccc1C=Nc1ccc2c(c1)CCC2.[O]=[U+2]=[O] | > 100 | > 100 | > 100 | > 100 | > 100 | > 100 | > 100 | > 100 | > 100 | > 100 | 70.3 | 9.92 | > 100 | > 100 | 82.7 | 27.8 | 14.2 | > 100 | 16.5 | 57.1
6 | CN(C)c1nc(=NCc2ccco2)ss1 | 45 | 38.4 | 16.1 | > 100 | 53.9 | 46.1 | 19.8 | > 70.5 | 36.3 | > 79.1 | – | – | – | – | – | – | – | – | – | –
7 | O=c1nc(-c2ccccc2)cc(CC(O)c2ccc(Cl)c(Cl)c2)[nH]1 (stereo not drawn) | > 100 | > 100 | > 100 | – | > 100 | > 100 | > 100 | > 100 | – | > 100 | – | – | – | – | – | – | – | – | – | –
8 | O=C1C(=O)N(c2ccc(Cl)cc2)C(=O)C(=O)C1c1nc2ccccc2s1 | > 100 | > 100 | > 100 | > 100 | > 100 | – | > 100 | > 100 | > 100 | > 100 | – | – | – | – | – | – | – | – | – | –
9 | O=C1OC(c2ccccc2)=N/C1=C\c1ccc(Oc2ccc(Cl)c(Cl)c2)cc1 | > 100 | – | 69.3 | – | – | > 100 | 58.4 | 52.3 | – | > 100 | – | – | – | – | – | – | – | – | – | –
10 | COC(=O)CC(C(C(=O)OCc1ccccc1)C(C)O)N1C(=O)OC(c2ccccc2)C1c1ccccc1 (stereo not drawn) | > 100 | > 100 | > 100 | > 100 | – | > 100 | > 100 | > 100 | > 100 | > 100 | – | – | – | – | – | – | – | – | – | –
11 | CCOC(=O)CCC1(C(=O)OCC)CCCC1=O (stereo not drawn) | > 100 | > 100 | > 100 | > 100 | > 100 | > 100 | > 100 | > 100 | 77.4 | > 100 | – | – | – | – | – | – | – | – | – | –
12 | COC(=O)CCC12CCC(=O)C1[C@@H](C(=O)OC)C[C@H]2C(=O)OC (stereo partly drawn) | > 100 | > 100 | > 100 | > 100 | > 100 | > 100 | > 100 | > 100 | > 100 | > 100 | – | – | – | – | – | – | – | – | – | –
13 | O=c1cccccc1NCCCCCCCNc1cccccc1=O | > 100 | > 100 | 25.8 | 32.8 | > 100 | > 100 | > 100 | 84.5 | 55.1 | – | – | – | – | – | – | – | – | – | – | –
14 | O=C(O)c1cc(=O)c2c([nH]c3ccccc32)s1 | > 100 | – | > 100 | > 100 | > 100 | > 100 | – | > 100 | > 100 | > 100 | – | – | – | – | – | – | – | – | – | –
15 | Cl/C(N=Nc1ccccc1)=N/Nc1ccccc1 | > 100 | > 100 | > 100 | > 100 | – | – | > 100 | – | – | > 100 | – | – | – | – | – | – | – | – | – | –
16 | COc1cccc(CN(C)c2ccc(CO)c(Cl)c2)c1 | > 100 | > 100 | > 62.2 | – | 98.4 | – | > 100 | 1.63 | > 78.3 | 74.8 | 42.1 | 34.7 | 11.2 | – | 22.2 | – | 48 | 0.19 | 12.8 | 16.9
17 | CNNC(=N\S(=O)(=O)c1cc(C)c(Cl)cc1SCc1ccccc1)/N=C/c1ccc([N+](=O)[O-])s1 | > 100 | > 100 | > 100 | – | > 100 | – | > 100 | > 100 | > 45.3 | – | > 100 | > 77.2 | > 100 | – | > 100 | – | > 100 | 47.9 | 0.422 | 1.29
18 | O=C(Nc1ccc(F)cc1F)c1cc(Cl)ccc1O | 7.68 | 12.6 | 5.1 | – | 3.79 | – | 9.9 | 3.03 | 3.83 | 9.51 | 2.09 | 1.73 | 1.37 | – | 1.09 | – | 1.01 | 0.489 | 0.689 | 2.97
19 | COC(=O)C1C(=O)CC2CCCCC21 (stereo not drawn) | > 100 | – | > 100 | – | > 100 | > 100 | > 100 | > 100 | > 100 | > 100 | – | – | – | – | – | – | – | – | – | –
20 | CCN1CCN(Cc2ccc(NC(=O)Nc3nc4ccc(Oc5ccnc(C(=O)NC)c5)cc4s3)cc2C(F)(F)F)CC1 | 2.71 | 3.17 | 3.13 | – | 2.73 | – | 2.97 | 3.28 | 5.34 | 3.67 | 1.39 | 1.71 | 1.67 | – | 1.37 | – | 1.54 | 1.7 | 2.1 | 2.05
